Test results as given in ChEMBL document CHEMBL5053536, “Discovery of Quinazoline-2,4(1H,3H)-dione Derivatives Containing 3-Substituted Piperizines as Potent PARP-1/2 Inhibitors─Design, Synthesis, In Vivo Antitumor Activity, and X-ray Crystal Structure Analysis” (J Med Chem, 2021).
Calls of active or inactive are those of the source. The rule behind the calls is not given here.

How the values were obtained:
Mus musculus [1] = assay: Toxicity in BALB/c mouse xenografted with human U-87MG cells assessed as effect on body weight at 25 mg/kg, po administered once daily for 5 days and measured on day 8 in presence of 30 mg/kg TMZ (reference value: 18.8 +/- 0.7 g); format: organism-based; settings: in vivo, 192 h, time 8 day
U-87 MG [2] = assay: Antitumor activity against human U-87MG cells xenografted in BALB/c mouse assessed as reduction in tumor volume at 50 mg/kg, po administered once daily for 5 days and measured on day 8 in presence of 30 mg/kg TMZ by MRI scanner (reference value: 202 +/- 120.4 mm3); format: functional, U-87MG ATCC; settings: time 8 day
U-87 MG [3] = assay: Antitumor activity against human U-87MG cells xenografted in BALB/c mouse assessed as reduction in tumor volume at 25 mg/kg, po administered once daily for 5 days and measured on day 32 in presence of 30 mg/kg TMZ by MRI scanner; format: functional, U-87MG ATCC; settings: time 32 day
[4] = MRT(0 to infinity) in BALB/c mouse at 25 mg/kg, po measured upto 24 hrs by LC-MS/MS analysis; format: ADME, organism-based; settings: in vivo
Mus musculus [5] = assay: Toxicity in athymic nu/nu mouse xenografted with human MX1 cells assessed as reduction in body weight at 12.5 to 25 mg/kg, po administered once daily for 5 days and measured upto day 17; format: organism-based; settings: in vivo, 408 h, dose 12.5-25 mg/kg, time < 17 day
[6] = MRT(0 to t) in Beagle dog at 20 mg/kg, po measured upto 24 hrs by LC-MS/MS analysis; format: ADME, organism-based, Canis lupus familiaris; settings: in vivo
U-251 [7] = assay: Inhibition of PARP1/2-mediated DNA repair in human U-251 cells assessed as reduction in PAR formation at 1 to 10 uM after 24 hrs in absence of TMZ by Western blot analysis; format: cell-based; settings: dose 1-10 µM
[8] = AUC(0 to infinity) in Beagle dog at 20 mg/kg, po measured upto 24 hrs by LC-MS/MS analysis; format: ADME, organism-based, Canis lupus familiaris; set-up: dose 20 mg/kg, time < 24 hrs, route po; settings: in vivo
[9] = Half life in Beagle dog at 20 mg/kg, po measured upto 24 hrs by LC-MS/MS analysis; format: ADME, organism-based, Canis lupus familiaris; settings: in vivo
T98G [10] = assay: Inhibition of PARP1/2-mediated DNA repair in human T98G cells assessed as reduction in PAR formation at 1 to 10 uM after 24 hrs in absence of TMZ by Western blot analysis; format: cell-based; settings: dose 1-10 µM
[11] = Oral bioavailability in Beagle dog at 20 mg/kg measured upto 24 hrs by LC-MS/MS analysis; format: ADME, organism-based, Canis lupus familiaris; settings: in vivo
Mus musculus [12] = assay: Toxicity in BALB/c mouse xenografted with human U-87MG cells assessed as effect on body weight at 50 mg/kg, po administered once daily for 5 days and measured on day 8 (reference value: 18.2 +/- 0.6 g); format: organism-based; settings: in vivo, 192 h, time 8 day
[13] = AUC(0 to t) in Beagle dog at 0.4 mg/kg, iv measured upto 24 hrs by LC-MS/MS analysis; format: ADME, organism-based, Canis lupus familiaris; set-up: time < 24 hrs, dose 0.4 mg/kg, route iv; settings: in vivo
[14] = Drug concentration in Sprague-Dawley rat brain assessed as brain blood ratio measured upto 24 hrs by LC-MS/MS analysis; format: ADME, organism-based; settings: read-out: BBR
[15] = MRT(0 to t) in Sprague-Dawley rat at 20 mg/kg, po measured upto 24 hrs by LC-MS/MS analysis; format: ADME, organism-based; settings: in vivo
[16] = MRT(0 to t) in Beagle dog at 0.4 mg/kg, iv measured upto 24 hrs by LC-MS/MS analysis; format: ADME, organism-based, Canis lupus familiaris; settings: in vivo
[17] = Cmax in Sprague-Dawley rat at 20 mg/kg, po measured upto 24 hrs by LC-MS/MS analysis; format: ADME, organism-based; set-up: time < 24 hrs, dose 20 mg/kg, route po; settings: in vivo
[18] = AUC(0 to infinity) in Beagle dog at 0.4 mg/kg, iv measured upto 24 hrs by LC-MS/MS analysis; format: ADME, organism-based, Canis lupus familiaris; set-up: dose 0.4 mg/kg, time < 24 hrs, route iv; settings: in vivo
[19] = Cmax in BALB/c mouse at 25 mg/kg, po measured upto 24 hrs by LC-MS/MS analysis; format: ADME, organism-based; set-up: time < 24 hrs, dose 25 mg/kg, route po; settings: in vivo
[20] = MRT(0 to t) in BALB/c mouse at 25 mg/kg, po measured upto 24 hrs by LC-MS/MS analysis; format: ADME, organism-based; settings: in vivo
[21] = AUC(0 to infinity) in BALB/c mouse at 25 mg/kg, po measured upto 24 hrs by LC-MS/MS analysis; format: ADME, organism-based; set-up: time < 24 hrs, dose 25 mg/kg, route po; settings: in vivo
[22] = biological target: T1, Poly [ADP-ribose] polymerase 1 (Homo sapiens, UniProt P09874); assay: Inhibition of recombinant human PARP1 using NAD+ as substrate incubated for 1 hr by ELISA
Homo sapiens = species: Homo sapiens; assay: Selectivity index, ratio of IC50 for inhibition of recombinant human PARP2 to IC50 for inhibition of recombinant human PARP1
U-87 MG [23] = assay: Antitumor activity against human U-87MG cells xenografted in BALB/c mouse assessed as tumor growth inhibition at 50 mg/kg, po administered once daily for 5 days and measured upto 32 days in presence of 30 mg/kg TMZ by MRI scanner; format: functional, U-87MG ATCC; settings: 768 h, time <= 32 day, read-out: TGI
MX1 = assay: Antitumor activity against human MX1 cells xenografted in athymic nu/nu mouse assessed as tumor growth inhibition at 25 mg/kg, po administered once daily for 5 days and measured on day 17 in presence of 50 mg/kg TMZ; format: functional; settings: Mus musculus, MX1, 408 h, time 17 day, read-out: TGI
T98G [24] = assay: Inhibition of PARP1/2-mediated DNA repair in human T98G cells assessed as increase in […] expression at 1 to 10 uM after 24 hrs in absence of TMZ by Western blot analysis; format: cell-based; settings: dose 1-10 µM
U-251 [25] = assay: Inhibition of PARP1/2-mediated DNA repair in human U-251 cells assessed as reduction in PAR formation at 1 to 10 uM after 24 hrs in presence of TMZ by Western blot analysis; format: cell-based; settings: dose 1-10 µM
MDA-MB-436 = assay: Antitumor activity against human MDA-MB-436 cells xenografted in po dosed athymic nu/nu mouse assessed as tumor growth inhibition administered once daily for 17 days; format: functional, organism-based; settings: time 17.0 day
U-251 [26] = assay: Inhibition of PARP1/2-mediated DNA repair in human U-251 cells assessed as increase in […] expression at 1 to 10 uM after 24 hrs in absence of TMZ by Western blot analysis; format: cell-based; settings: dose 1-10 µM
U-87 MG [27] = assay: Antitumor activity against human U-87MG cells xenografted in BALB/c mouse assessed as tumor growth inhibition at 25 mg/kg, po administered once daily for 5 days and measured upto 32 days in presence of 30 mg/kg TMZ by MRI scanner; format: functional, U-87MG ATCC; settings: 768 h, time <= 32 day, read-out: TGI
[28] = biological target: T1, Poly [ADP-ribose] polymerase 1; assay: Binding affinity to recombinant human PARP1 assessed as dissociation constant by SPR assay
[29] = Tmax in Sprague-Dawley rat at 20 mg/kg, po measured upto 24 hrs by LC-MS/MS analysis; format: ADME, organism-based; settings: in vivo
[30] = MRT(0 to infinity) in Beagle dog at 0.4 mg/kg, iv measured upto 24 hrs by LC-MS/MS analysis; format: ADME, organism-based, Canis lupus familiaris; settings: in vivo
[31] = Cmax in Beagle dog at 0.4 mg/kg, iv measured upto 24 hrs by LC-MS/MS analysis; format: ADME, organism-based, Canis lupus familiaris; set-up: time < 24 hrs, dose 0.4 mg/kg, route iv; settings: in vivo
[32] = Half life in Sprague-Dawley rat at 20 mg/kg, po measured upto 24 hrs by LC-MS/MS analysis; format: ADME, organism-based; settings: in vivo

T1 sequence (P09874 whole entry): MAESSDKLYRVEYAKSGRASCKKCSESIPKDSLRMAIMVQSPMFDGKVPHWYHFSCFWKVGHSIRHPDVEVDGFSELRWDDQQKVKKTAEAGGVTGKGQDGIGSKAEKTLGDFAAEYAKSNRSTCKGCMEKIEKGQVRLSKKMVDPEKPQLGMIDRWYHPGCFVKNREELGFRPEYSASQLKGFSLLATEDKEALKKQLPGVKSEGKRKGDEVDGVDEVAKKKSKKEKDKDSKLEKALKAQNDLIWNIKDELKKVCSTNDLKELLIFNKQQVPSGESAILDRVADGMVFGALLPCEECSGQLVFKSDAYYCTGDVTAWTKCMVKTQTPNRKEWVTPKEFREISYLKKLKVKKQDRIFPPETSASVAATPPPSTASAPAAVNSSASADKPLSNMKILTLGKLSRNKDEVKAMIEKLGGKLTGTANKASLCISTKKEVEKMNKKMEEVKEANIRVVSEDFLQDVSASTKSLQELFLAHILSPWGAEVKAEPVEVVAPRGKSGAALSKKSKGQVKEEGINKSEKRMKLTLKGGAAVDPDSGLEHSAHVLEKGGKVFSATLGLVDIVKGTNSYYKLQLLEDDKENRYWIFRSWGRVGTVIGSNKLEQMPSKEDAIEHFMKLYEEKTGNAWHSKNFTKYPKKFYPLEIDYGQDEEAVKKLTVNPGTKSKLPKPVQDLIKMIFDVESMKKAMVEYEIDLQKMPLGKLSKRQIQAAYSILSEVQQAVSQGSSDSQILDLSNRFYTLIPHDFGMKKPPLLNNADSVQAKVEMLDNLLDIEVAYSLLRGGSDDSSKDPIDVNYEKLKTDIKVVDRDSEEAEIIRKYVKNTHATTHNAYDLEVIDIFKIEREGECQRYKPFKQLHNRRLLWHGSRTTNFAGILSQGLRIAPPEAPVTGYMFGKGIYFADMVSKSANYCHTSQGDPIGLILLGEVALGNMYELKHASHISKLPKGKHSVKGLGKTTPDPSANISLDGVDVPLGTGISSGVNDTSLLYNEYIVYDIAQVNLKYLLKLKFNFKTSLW

CC[C@@H]1CN(C(=O)c2cc(Cn3c(=O)[nH]c(=O)c4ccccc43)ccc2F)CCN1CC
Activity (Mus musculus [1]): 18.2 g
Activity (U-87 MG [2]): 0 mm3
Activity (U-87 MG [3]): 10.3 mm3
MRT inf [4]: 1.05 h
Activity (Mus musculus [5]): Non-Toxic
MRT last at 24 h [6]: 4.58 h
inhibition (U-251 [7]): Active
AUC(0-inf) [8]: 34600 ng·h/mL
half-life [9]: 3.78 h
inhibition (T98G [10]): Active
bioavailability [11]: 48.3%
Activity (Mus musculus [12]): 15.3 g
AUC(0-t) at 24 h [13]: 1410 ng·h/mL
Kp at 24 h [14]: 0.1
MRT last at 24 h [15]: 1.24 h
MRT last at 24 h [16]: 1.31 h
Cmax [17]: 208 ng/mL
AUC(0-inf) [18]: 1430 ng·h/mL
Cmax [19]: 399 ng/mL
MRT last at 24 h [20]: 0.92 h
AUC(0-inf) [21]: 593 ng·h/mL
IC50 [22]: 0.51 nM
Ratio IC50 (Homo sapiens): 45
inhibition in vivo at 50 mg/kg (U-87 MG [23]): 85.9%
inhibition in vivo at 25 mg/kg (MX1): 86.8%
inhibition (T98G [24]): Active
inhibition (U-251 [25]): Active
Activity (MDA-MB-436): Dose-dependent effect
inhibition (U-251 [26]): Active
inhibition in vivo at 25 mg/kg (U-87 MG [27]): 87.9%
Kd [28]: 1.92 nM
Tmax [29]: 4.98 min
MRT inf [30]: 1.43 h
Cmax [31]: 1250 ng/mL
half-life [32]: 0.8 h
